# Assay results from patent US8778389B2, “Medicament for the treatment of fungal infections particularly aspergillosis” (Sigma-Tau Industrie Farmaceutiche Riunite S.p.A., priority 2004, dated 2014).
# Entries after “also recorded” stand apart in the source; their conditions may differ. Like-named read-outs stand apart in the source and are kept apart here.
# What was measured:
# A. fumigatus [1] = assay type: in vivo, mice
# Description: Lethally irradiated C3H/HeJ mice were infused with T-cell-depleted BM cells of BALB/c mice (2×10^6) one week before intra-nasal infection with 2×10^7 Aspergillus conidia. The mice were treated with PTX3 or with the polyenes, at the doses and via the routes indicated, 5 days before (Pre-) or after (Post-) or concomitantly with infection (Con.), in each case repeating the administration for the next 5 days. Resistance to the infection was assessed as percentage survival. The fungal load in the lungs, brains and kidneys of the infected mice was quantified by serial plating on the Sabouraud dextrose medium of the lavages of the various organs and the results were expressed as colony forming units (CFU) (mean±SE) in samples taken from the organs indicated and performed at the time of death for the mice that died […] or otherwise at 6 days after infection. The groups consisted of 6 animals.
# BM-transplanted mice, generated as described in detail in the legend to FIG. 1, were infected intranasally with 2×10^7 Aspergillus conidia and treated intraperitoneally with each single agent alone or in combination, before (Pre-) or after (Post-) infection. The doses were: 0.04 and 0.2 mg/kg PTX3 before or after infection, respectively; 1 mg/kg AmBisome and 2 mg/kg Fungizone.
# Bone marrow (BM) cells from BALB/c donor mice were prepared by differential agglutination with soy agglutinin.
# The A. fumigatus strain was supplied by a fatal case of pulmonary aspergillosis at the Institute for Infectious Diseases of the University of Perugia (13). For infection, the mice were lightly anaesthetised by means of the inhalation of ethyl ether prior to the instillation of a suspension of 2×10^7 conidia/20 μL saline solution, which was delivered slowly through the nostrils using a micropipette with a sterile disposable tip. This procedure was repeated for 3 consecutive days. For reinfection, the mice surviving the primary intranasal (i.n.) infection were inoculated with 5×10^5 of Aspergillus conidia i.v. The fungal load in the lungs, brain and kidneys of the infected mice was quantified by serial plating on Sabouraud dextrose medium and the results (mean±SE) were expressed as colony forming units (CFU) in samples taken from the organs indicated. For selected experiments, the fungal growth was also evaluated by chitin analysis (10). For the histological analysis, the lung was removed and immediately fixed in formalin. Sections (3 to 4 μm) of tissues embedded in paraffin were stained with the periodic acid Schiff base procedure (13, 20).
# PTX3 (SIGMA-Tau, Pomezia, Rome, Italy) was purified by immunoaffinity chromatography from the culture supernatants of CHO cells CHO transfected with PTX3 and monitored for the absence of endotoxins (20). PTX3, amphotericin B deoxycholate (D-AmB, Fungizone, Bristol-Myers Squibb, Sermoneta, Italy) and liposomal amphotericin B (L-AmB, AmBisome, GILEAD, Milan, Italy) were diluted to the desired concentrations in sterile saline solution (PTX3) or in a 5% glucose-water solution.
# Aspergillus conidia [2] = experiment: Resistance to Aspergillus reinfection (i.v.) in cured BM-transplanted mice; assay type: in vivo; conditions: PTX3 concomitantly with primary infection; i.v. reinfection two weeks later; CFU 3 days after reinfection
# Text: FIG. 2 illustrates the effect of the administration of PTX3 on resistance to Aspergillus reinfection. BM-transplanted mice, generated as described in detail in the legend to FIG. 1, were infected intranasally with 2×10^7 Aspergillus conidia one week after the BM transplant and treated concomitantly with PTX3 at the doses and via the administration routes indicated, starting on the day of infection and continuing for the next 5 days. Two weeks after the infection the surviving mice were reinfected intravenously with 5×10^5 Aspergillus conidia. The fungal growth (CFU) in the kidneys was evaluated 3 days after reinfection. * Indicates P<0.05 (treated vs. untreated mice).
# (§1) The A. fumigatus strain was supplied by a fatal case of pulmonary aspergillosis at the Institute for Infectious Diseases of the University of Perugia (13). […] For reinfection, the mice surviving the primary intranasal (i.n.) infection were inoculated with 5×10^5 of Aspergillus conidia i.v. The fungal load in the lungs, brain and kidneys of the infected mice was quantified by serial plating on Sabouraud dextrose medium and the results (mean±SE) were expressed as colony forming units (CFU) in samples taken from the organs indicated. For selected experiments, the fungal growth was also evaluated by chitin analysis (10). […]
# A. fumigatus [3] = experiment: Lung histology (periodic acid Schiff) in mice with invasive aspergillosis; assay type: in vivo; conditions: 1 mg/kg i.p. from day of infection and for another 5 days; 6 days after infection
# Description: Periodic Schiff base sections were prepared from the lungs of the BM-transplanted mice infected with Aspergillus conidia either untreated (A) or treated (B) with 1 mg/kg PTX3 intraperitoneally from the day of infection and continuing for another 5 days. Numerous Aspergillus hyphae (arrows) infiltrate the pulmonary parenchyma, with extensive parenchymal destruction and strong signs of damage to the bronchial wall, and necrosis and poor cell recruitment are observed in the lungs of the untreated mice ([…]). […] Enlargement, ×100 in panels A and B; ×400 in insets.
# as §1
# [4] = system: CD4+, CD8+, Gr-1+, F4-80+ cells; experiment: Cell recovery by FACS analysis of lung and spleen cells and blood leukocyte count in mice with invasive aspergillosis; assay type: in vivo
# Description: BM-transplanted mice, generated as described in detail in the legend to FIG. 1, were infected intranasally with 2×10^7 Aspergillus conidia and treated (+) or untreated (−) with 1 mg/kg PTX3 intraperitoneally from the day of infection and continuing for another 5 days. The numbers refer to the percentage of positive cells, reported by the FACS analysis in the lungs (A) and in the spleen (B), 3 or 6 days after infection.
# The phenotype of the various cell types was assessed using murine antibodies against the antigens indicated with rat anti-mouse antibodies conjugated with FITC from PharMingen (San Diego, Calif.). Prior to immunochemical identification, the FcR was saturated by incubation of the cells with 5% normal serum. Histotype antibodies were used as controls. The analysis was done by means of FACScan (Becton Dickinson, Mountain View, Calif.). The data obtained were evaluated as percentage of positive cells. The histograms are representative of one of four independent experiments.
# [5] = system: IL-12 p70, IL-10, TNF-α, IFN-γ, IL-4; experiment: Cytokine levels (ELISA) and cytokine-producing CD4+ T spleen cells (ELISPOT) in mice with invasive aspergillosis; assay type: in vivo
# Description: (§2) BM-transplanted mice, generated as described in detail in the legend to FIG. 1, were infected intranasally with 2×10^7 Aspergillus conidia and treated with 1 mg/kg PTX3 intraperitoneally both before infection (oblique line bars) and from the day of infection and continuing for another 3 days (dotted bars). At 3 days after infection, IL-12 p70 and IL-10 levels were determined by specific ELISA analyses in bronchoalveolar lavage fluids (A), the number of CD4^+ T spleen cells producing cytokines were numbered by ELISPOT analysis (B) and the gene expression of cytokine on CD4^+ spleen cells was determined by real-time PCR. Bars indicate standard errors. *P<0.05, infected vs. non-infected mice; **P<0.05, PTX3-treated vs untreated mice. Non-infected mice (white bars); infected mice (black bars).
# BM-transplanted mice, generated as described in detail in the legend to FIG. 1, were infected intranasally with 2×10^7 Aspergillus conidia and treated intraperitoneally with each individual agent alone or in combination after infection. The dosages were as described in detail in the legend to FIG. 6. […] levels (pg/ml) were determined in bronchoaleveolar lavage fluids 3 days after infection (A) and IFN-γ and IL-4 levels (pg/ml) in the culture supernatants of the antigen-activated spleen cells (B) performed at the time of death for those mice that died before, or otherwise at 6 days after infection. Bars indicate standard errors. (−, untreated mice). *P<0.05 treated vs. untreated mice; **P<0.05, combination treatment with PTX3+Fungizone (D-AmB) vs D-AmB alone; ***P<0.05, combination treatment with PTX3+AmBisome (L-AmB) vs each single treatment alone.
# The levels of cytokines in the bronchoalveolar lavage fluids and in the supernatants of the cultures of spleen cells stimulated with Aspergillus (9, 10), thermally […], were determined using the ELISA Kit (R&D Systems, Inc. Space Import-Export srl, Milan Italy). The detection limits of the analyses (pg/ml) were <16 for IL-12 p70, <32 for TNF-α, <10 for IFN-γ and <3 for IL-4 and IL-10. For the numbering of the CD4^+ T cells producing cytokines, ELISPOT analysis was used on purified CD4^+ T spleen cells (9, 10). The results were expressed as the mean number of cells producing cytokines (±SE) per 10^5 cells, calculated using replicates of the serial cell dilutions.
# IFN-γ and IL-4 mRNA = experiment: Cytokine gene expression on CD4+ spleen cells by real-time RT-PCR; assay type: in vivo, mice; conditions: prophylactic and therapeutic treatment
# Description: as §2
# Total RNA (5 μg, extracted from CD4^+ T spleen cells using the RNeasy Mini Kit (QIAGEN S.p.A., Milan, Italy)) was retrotranscribed with Sensiscript reverse transcriptase (QIAGEN) according to the manufacturer's indications. The primers for PCR were obtained from Applied Biosystems (Foster City, Calif.). […] The data normalised with RNA 18S were expressed as relative mRNA of the cytokines examined (ΔΔCt) and compared with those of naive mice (10).
# [6] = PTX3 levels in bronchoalveolar lavage fluids after i.n. administration; assay type: in vivo, mice; conditions: 0.5 mg/kg i.n.
# Description: To assess whether PTX3 may have a beneficial effect in otherwise susceptible mice, we used BM-transplanted mice whose substantial susceptibility to IA is well documented (15). The mice were subjected to treatments with different doses of PTX3 administered intranasally or intraperitoneally, before, concomitantly with or after infection. The doses were selected on the basis of preliminary experiments showing that PTX3 levels (at the dose of 0.5 mg/kg/i.n.) were high in bronchoalveolar lavage fluids for at least 24 h (from 70 to 25 ng/ml from 2 to 24 h) and that they were higher than those observed in mice with IA one day after infection (from 2 to 15 ng/ml) (20 and unpublished data). The survival parameters and fungal load in the lung and brain were then recorded and analysed in comparison with those obtained in mice treated with different doses of AmBisome or Fungizone. […] A dose-dependent effect was detected for this administration period, in that the protective efficacy of PTX3 was lost at the dose of 0.04 mg/kg. […] No difference was observed between the two administration routes. […] These characteristics were not observed in the mice treated with PTX3, the lungs of which were characterised by healing infiltrates of poly- and mononuclear inflammatory cells with no evidence of fungal growth or destruction of the bronchial wall (FIG. 3B).
# A. fumigatus [7] = experiment: In-vitro direct killing activity on the fungus; assay type: cell-based; conditions: data not shown
# Aspergillus conidia [8] = experiment: Conidia-killing activity of effector phagocytes from treated mice; assay type: in vivo; conditions: treated vs untreated mice; data not shown
# [9] = 1 mg/kg i.p., 3 days after infection, vs untreated control
substance,measurement,setting,value
PTX3: long pentraxin PTX3 purified by immunoaffinity chromatography from culture supernatants of CHO cells transfected with PTX3,survival,A. fumigatus [1]; PTX3 administered after infection,increased the survival of the mice only at the higher dose
same,survival,"A. fumigatus [1]; PTX3 administered prophylactically, any of the doses assayed",≥ 60 days
same,fungal load in the lung,"A. fumigatus [1]; after infection, both doses",significantly reduced
same,fungal load in the brain,"A. fumigatus [1]; after infection, higher dose",significantly reduced
same,protective efficacy,"A. fumigatus [1]; concomitantly with infection, 0.04 mg/kg",lost
same,fungal load in the lungs and brain,"A. fumigatus [1]; prophylactic, particularly at highest dose (1 mg/kg), vs untreated",significantly reduced
same,fungal growth in the kidneys of reinfected mice,Aspergillus conidia [2],reduced
same,lung pathology,A. fumigatus [3],no evidence of parenchymal destruction or fungal growth; also recorded: improved
same,"numbers of CD4+ cells, CD8+ cells and Gr-1+ neutrophils in the lungs","[4]; 1 mg/kg i.p., FACS",significantly increased
same,"recovery of neutrophils and, partly, of CD4+ T cells in the spleens","[4]; 1 mg/kg i.p., FACS",observed
same,absolute number of circulating neutrophils,"[4]; blood leukocytes, data not shown",increased significantly
same,number of F4-80+ cells of the lungs or spleens,[4]; with or without PTX3 treatment,No difference
same,increase of IL-12 production,[5]; [9],approximately 4 fold
same,production of IL-10,[5]; [9],halved
same,frequency of CD4+ Th1 cells in the spleen,[5]; ELISPOT,increased
same,frequency of cells producing IL-4 in the spleen,[5]; ELISPOT,reduced
same,production of IL-4 by spleen cells,"[5]; antigen-stimulated spleen cell supernatants, suboptimal doses",greatly reduced
same,production of TNF-α,[5]; lungs of infected mice treated with PTX3,not increased
same,expression of IFN-γ mRNA,IFN-γ and IL-4 mRNA,significantly increased
same,expression of IL-4 mRNA,IFN-γ and IL-4 mRNA,reduced
same,time PTX3 levels were high in bronchoalveolar lavage fluids,[6],at least 24 h
same,direct killing activity on the fungus,A. fumigatus [7],ruled out any direct killing activity
same,conidia-killing activity of the effector phagocytes,Aspergillus conidia [8],higher
